Data as given in US20200376003A1, “PHARMACEUTICAL COMPOSITION FOR PREVENTING OR TREATING CHOLESTEROL GALLSTONE COMPRISING URSODEOXYCHOLIC ACID (UDCA) AND OMEGA-3 FATTY ACID, AND PROCESS FOR PRODUCING THE SAME” (INDUSTRY-ACADEMIC COOPERATION FOUNDATION, YONSEI UNIVERSITY, priority 2019, published 2020).
“Also recorded” adds a separate entry of the source.

System: mice with gallstones formed due to a high-cholesterol diet
Assay: Treatment of cholesterol gallstones in mice with gallstones formed by a high-cholesterol (lithogenic) diet, 12 weeks of drug administration
Format: in vivo, C57BL/6J male mice
Method: An overall schematic diagram of the animal experiment is as illustrated in FIG. 1. This will be described below in more detail. C57BL/6J male mice were purchased from Central Lab. Animal Inc. The mice were allowed to have a 4-week compliance period under a condition of controlled light (a cycle of 12-hour light and 12-hour darkness in which darkness is from 6:30 pm to 6:30 am), temperature (22±4° C.), and humidity (50%±20%). The mice had ad libitum access to water (autoclaved distilled water) and were fed commercial feed (Scientific Animal Food & Engineering/+40RMM) containing 2.9% fat, 15.2% protein, and 60.7% carbohydrate. In addition, a lithogenic diet (DYET #102136; Dyets, Inc., Bethlehem, Pa., USA) containing cholesterol (10 g/kg) and cholic acid (5 g/kg) was given for 8 weeks, so that mice with gallstones formed due to a high-cholesterol diet were created.
The mice with gallstones formed due to a high-cholesterol diet were divided into the following groups and experiments were conducted for 12 weeks:
Each of the mice of the control group (1) was administered, using a sonde, 0.3 ml of a mixture of 0.75% Tween 80 and distilled water. The mice of the groups (2) to (4) were administered, using a sonde, a product obtained by diluting 12.5 mg/kg/day of UDCA and 51 mg/kg/day of omega-3 fatty acid in 0.75% Tween 80. […]
After 12 weeks of drug administration, animals were sacrificed and gallbladder tissue was obtained. […] After the high-cholesterol diet, body weight and liver weight were measured; and after the normal diet and therapeutic agent administration, body weight and liver weight were measured (FIG. 2). […]
The size of gall stones in the gallbladder tissue obtained in Example 1 was analyzed on the basis of FIG. 4 (FIGS. 5 and 6). […]
Changes in the weight of liver gallstones after the high-cholesterol diet (base) and after the therapeutic agent administration were analyzed (FIGS. 7 and 8).

[1] = Example 2, anatomical changes before and after 12 weeks of drug administration, normal diet

`C[C@H](CCC(=O)O)[C@H]1CC[C@H]2[C@@H]3[C@@H](O)C[C@@H]4C[C@H](O)CC[C@]4(C)[C@H]3CC[C@]12C` [UDCA, 3α,7β-dihydroxy-5β-cholanoic acid] was tested, and the “amount of gallstones after administration (FIG. 3)” value [1] was “insignificantly decreased”, the “size of gallstones after administration (FIG. 3)” value [1] was “slightly decreased; also recorded: insignificant changes” and the “size of gallstones, analysed on the classification chart of FIG. 4 (FIGS. 5 and 6)” value (Example 3, after high-cholesterol diet vs after therapeutic agent administration) was “no change in size”.
